US20250263404A1, “AMINOPYRIDINES AS ACTIVATORS OF PI3 KINASE” (UCL Business Ltd, priority 2021, published 2025)

Tests used:
BRK = BRK (Homo sapiens, UniProt Q13882); test: SelectScreen kinase profiling, BRK; format: biochemical; settings: 1 μM of 1938, 75 μM ATP
Procedure: 133 protein kinases and 7 lipid kinases were counterscreened, with […] used at 1 μM, using the Adapta, Lantha and Z-LYTE assays (SelectScreen Kinase Profiling Service; Thermofisher—experimental details of these assays can be found here: https://www.thermofisher.com/uk/en/home/industrial/pharma-biopharma/drug-discovery-development/target-and-lead-identification-and-validation/kinasebiology/kinase-activity-assays.html. The tree representation in KinMap generated courtesy of Cell Signaling Technology, Inc. (www.cellsignal.com). mTORC1 (mTOR/RAPTOR/LST8) protein complex and ATM kinase and substrates were produced as previously described (Anandapadamanaban, M. et al. Science (New York, NY 366, 203-210 (2019); Baretic, D. et al. Sci Adv 3, e1700933 (2017). Screening of 1938 was conducted using SuperSep Phos-Tag 50 μmol/l 100×100×6.6 mm 17-well (192-18001/199-18011) gels. For ATM assays, 100 nM ATM was incubated for 30 min at 30° C. with 5 μM GST-p53 and 1 mM ATP, in the absence or presence of 200 μM 1938 in ATM Kinase Buffer (50 mM HEPES pH 7.5, 100 mM NaCl, 10% glycerol, 2 mM […], 5 mM MgCl2). […] Gels were then stained using InstantBlue™ Coomassie stain, and then quantified using BioRad Image Lab Software. […]

PI3Kα-WT MEFs = test: Cell number by crystal violet staining in MEFs; format: cell-based, mouse; settings: 72 h
Procedure: MEFs were seeded at 5000 cells per well in 96-well plates in DMEM supplemented with 10% FBS and 1% P/S, and allowed to attach overnight. The next day, cells were serum-starved for 5 h prior to compound addition in fresh serum-free DMEM. After different time points, cells were rapidly washed with distilled H2O before fixed and stained in a solution of 0.5% crystal violet (Sigma-Aldrich cat #C0775) in 20% methanol (v:v) as described (Feoktistova, M. et al. Cold Spring Harb Protoc 2016, pdb prot087379 (2016). Briefly, after 20 min incubation at room temperature on a rocking platform, fixed and stained cells were washed 3 times with distilled H2O and plates air-dried overnight. 200 μl methanol was next added to each well and the plates were incubated at room temperature for 20 min on a bench rocker, followed by measurement of optical density at 570 with a plate reader.

Sequence of BRK (Q13882 whole entry): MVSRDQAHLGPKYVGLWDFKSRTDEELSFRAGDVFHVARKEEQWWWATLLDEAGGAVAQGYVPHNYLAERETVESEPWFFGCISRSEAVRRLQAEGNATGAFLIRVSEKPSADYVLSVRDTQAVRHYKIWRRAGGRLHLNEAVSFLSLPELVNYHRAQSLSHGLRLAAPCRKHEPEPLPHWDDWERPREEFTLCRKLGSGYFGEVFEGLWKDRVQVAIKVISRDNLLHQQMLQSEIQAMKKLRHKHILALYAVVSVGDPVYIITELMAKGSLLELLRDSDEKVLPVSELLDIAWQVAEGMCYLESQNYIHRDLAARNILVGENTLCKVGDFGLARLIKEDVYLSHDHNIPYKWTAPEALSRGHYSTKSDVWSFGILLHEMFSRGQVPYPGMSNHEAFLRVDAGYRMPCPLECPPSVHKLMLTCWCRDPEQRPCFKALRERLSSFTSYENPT

- inhibition of BRK (BRK): 56%
Structure (SMILES): CCN1CCN(c2ccc(Nc3cc(Nc4cccc5c4N(C(C)=O)CC5)ccn3)cc2)CC1 [Example 1938]
- cell number (crystal violet staining) (PI3Kα-WT MEFs): an increase in cell number
